Assay [1] deals with BRM (Homo sapiens, UniProt P51531). In words: ATPase catalytic activity assay of BRM (ADP-Glo). Format: biochemical. Conditions: for IC50: read-out: BRM IC50 (μM)*. A digest of the protocol: (§1)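 ADP formed by the ATPase reaction was quantified by ADP-Glo luminescence. After the reaction, unconsumed ATP was depleted (40 min, room temperature), then ADP was converted to ATP for luciferase detection (60 min, room temperature) before reading on a luminometer.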
For orientation: In ADP-Glo the light output rises with the ADP produced.

Assay [2] concerns the target BRG-1 (Homo sapiens, UniProt P51532). In words: ATPase catalytic activity assay of BRG-1 (ADP-Glo). Format: biochemical. The note with it: ATPase catalytic activity, ADP-Glo; for IC50: read-out: BRG1 IC50 (μM)*; for Emax: read-out: BRG1 Max % Inhibition. In a few lines:
as §1

This note sets out measurements from US12685735B2 (Foghorn Therapeutics Inc., priority 2020, dated 2026).

SMILES strings stand for the structures. Read-outs that look alike come from different tables or passages of the source.

Chain of BRM (P51531 whole entry): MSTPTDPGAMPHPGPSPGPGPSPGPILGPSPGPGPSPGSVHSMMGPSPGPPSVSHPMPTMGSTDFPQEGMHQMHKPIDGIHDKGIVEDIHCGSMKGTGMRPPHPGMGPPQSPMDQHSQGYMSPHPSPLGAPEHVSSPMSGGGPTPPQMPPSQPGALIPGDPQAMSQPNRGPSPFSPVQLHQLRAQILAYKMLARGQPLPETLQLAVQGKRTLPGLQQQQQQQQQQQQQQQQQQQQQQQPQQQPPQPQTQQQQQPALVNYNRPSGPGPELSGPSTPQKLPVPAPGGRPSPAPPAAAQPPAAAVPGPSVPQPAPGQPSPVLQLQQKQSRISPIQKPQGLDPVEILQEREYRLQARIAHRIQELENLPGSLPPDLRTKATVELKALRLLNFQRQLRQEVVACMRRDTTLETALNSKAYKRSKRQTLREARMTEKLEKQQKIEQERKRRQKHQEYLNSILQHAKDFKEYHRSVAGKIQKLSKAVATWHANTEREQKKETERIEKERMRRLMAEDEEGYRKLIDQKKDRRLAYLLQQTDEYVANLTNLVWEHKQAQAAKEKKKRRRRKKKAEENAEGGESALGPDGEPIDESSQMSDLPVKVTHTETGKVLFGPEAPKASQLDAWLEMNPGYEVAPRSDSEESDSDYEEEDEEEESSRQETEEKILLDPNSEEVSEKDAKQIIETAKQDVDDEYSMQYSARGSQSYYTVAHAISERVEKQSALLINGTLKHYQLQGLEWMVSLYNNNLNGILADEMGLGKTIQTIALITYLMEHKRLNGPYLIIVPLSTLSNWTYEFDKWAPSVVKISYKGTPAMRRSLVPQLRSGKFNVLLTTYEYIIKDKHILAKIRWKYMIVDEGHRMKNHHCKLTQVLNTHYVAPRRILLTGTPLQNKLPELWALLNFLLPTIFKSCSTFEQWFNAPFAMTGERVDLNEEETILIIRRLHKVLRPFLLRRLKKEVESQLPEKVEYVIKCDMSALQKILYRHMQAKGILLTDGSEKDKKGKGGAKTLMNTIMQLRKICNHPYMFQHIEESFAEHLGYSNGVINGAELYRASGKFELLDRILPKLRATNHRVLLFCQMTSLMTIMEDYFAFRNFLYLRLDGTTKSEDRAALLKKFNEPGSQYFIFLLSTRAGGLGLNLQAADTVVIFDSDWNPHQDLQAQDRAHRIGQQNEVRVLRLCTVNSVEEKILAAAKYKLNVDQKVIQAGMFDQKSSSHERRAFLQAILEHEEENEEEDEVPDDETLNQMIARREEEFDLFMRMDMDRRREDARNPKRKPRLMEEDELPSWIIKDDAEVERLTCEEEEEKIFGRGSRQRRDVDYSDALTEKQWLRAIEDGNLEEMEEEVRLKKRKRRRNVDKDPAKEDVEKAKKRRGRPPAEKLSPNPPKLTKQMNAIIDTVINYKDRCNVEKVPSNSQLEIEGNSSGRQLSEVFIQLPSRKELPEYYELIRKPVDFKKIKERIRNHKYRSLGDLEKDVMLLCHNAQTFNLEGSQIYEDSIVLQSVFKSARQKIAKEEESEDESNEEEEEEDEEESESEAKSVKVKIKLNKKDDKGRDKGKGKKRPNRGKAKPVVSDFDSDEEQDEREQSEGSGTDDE
Chain of BRG-1 (P51532 whole entry): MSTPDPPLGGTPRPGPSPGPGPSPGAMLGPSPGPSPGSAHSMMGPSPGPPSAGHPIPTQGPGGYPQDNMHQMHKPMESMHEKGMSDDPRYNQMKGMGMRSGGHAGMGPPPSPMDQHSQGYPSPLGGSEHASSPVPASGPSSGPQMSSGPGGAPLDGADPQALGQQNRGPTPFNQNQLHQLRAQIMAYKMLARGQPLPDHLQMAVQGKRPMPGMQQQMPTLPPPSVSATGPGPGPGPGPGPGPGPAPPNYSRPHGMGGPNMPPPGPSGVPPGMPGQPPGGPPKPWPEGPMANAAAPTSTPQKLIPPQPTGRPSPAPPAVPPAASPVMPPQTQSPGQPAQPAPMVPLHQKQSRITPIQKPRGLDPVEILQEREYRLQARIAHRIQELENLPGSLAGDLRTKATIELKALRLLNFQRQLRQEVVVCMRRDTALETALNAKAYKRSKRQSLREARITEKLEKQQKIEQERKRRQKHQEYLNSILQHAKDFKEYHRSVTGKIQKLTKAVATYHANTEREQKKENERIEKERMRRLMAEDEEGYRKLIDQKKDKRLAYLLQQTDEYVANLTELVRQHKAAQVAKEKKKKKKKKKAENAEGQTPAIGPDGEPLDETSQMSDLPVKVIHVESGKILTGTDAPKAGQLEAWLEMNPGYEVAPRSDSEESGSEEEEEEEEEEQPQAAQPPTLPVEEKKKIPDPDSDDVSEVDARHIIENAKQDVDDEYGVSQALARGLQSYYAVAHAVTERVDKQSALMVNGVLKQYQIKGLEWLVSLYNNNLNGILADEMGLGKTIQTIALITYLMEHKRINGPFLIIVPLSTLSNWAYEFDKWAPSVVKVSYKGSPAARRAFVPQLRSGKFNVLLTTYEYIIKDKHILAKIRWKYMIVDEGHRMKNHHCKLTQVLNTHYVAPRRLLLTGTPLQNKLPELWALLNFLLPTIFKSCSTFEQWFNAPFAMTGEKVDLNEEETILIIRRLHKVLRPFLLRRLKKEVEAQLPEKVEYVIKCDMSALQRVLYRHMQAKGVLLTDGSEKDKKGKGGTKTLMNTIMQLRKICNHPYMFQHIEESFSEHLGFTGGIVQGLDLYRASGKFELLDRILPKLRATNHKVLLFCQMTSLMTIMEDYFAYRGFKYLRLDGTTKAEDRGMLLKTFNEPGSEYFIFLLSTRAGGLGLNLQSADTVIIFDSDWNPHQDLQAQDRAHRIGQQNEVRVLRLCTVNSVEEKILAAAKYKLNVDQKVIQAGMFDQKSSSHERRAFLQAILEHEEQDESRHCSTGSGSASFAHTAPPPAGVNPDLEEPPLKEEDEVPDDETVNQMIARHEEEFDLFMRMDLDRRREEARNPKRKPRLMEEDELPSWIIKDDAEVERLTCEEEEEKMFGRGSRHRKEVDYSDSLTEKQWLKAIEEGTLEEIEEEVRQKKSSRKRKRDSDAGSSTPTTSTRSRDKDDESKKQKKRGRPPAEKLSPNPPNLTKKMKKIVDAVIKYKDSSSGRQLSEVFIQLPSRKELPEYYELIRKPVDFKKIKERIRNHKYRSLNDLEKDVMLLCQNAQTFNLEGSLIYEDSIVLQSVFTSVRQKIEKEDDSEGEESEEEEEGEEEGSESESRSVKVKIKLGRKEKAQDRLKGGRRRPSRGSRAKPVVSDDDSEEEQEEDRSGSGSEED

`CC1(C#N)CCOc2ccc(C(=O)NCC(=O)Nc3nc(-c4cccc(C(F)F)c4)cs3)cc21` (stereo in doubt) [Compound 442, (S)-4-cyano-N-(2-((4-(3-(difluoromethyl)phenyl)thiazol-2-yl)amino)-2-oxoethyl)-4-methylchromane-6-carboxamide]: in assay [1] (30 nM BRM, 400 μM ATP), the “BRM Max % Inhibition” value is given as more than 95% and the IC50 is less than 0.1 µM. For the same compound, in assay [2] (30 nM BRG-1, 400 μM ATP), the IC50 lay in the range of 0.1 to 1 µM and the Emax is more than 95%.

In the case of `Cc1nccc(-c2cccc(-c3csc(NC(=O)CNC(=O)c4cccc(S(=O)(=O)C(C)C)c4)n3)c2)n1` [Compound 13, 3-(isopropylsulfonyl)-N-(2-((4-(3-(2-methylpyrimidin-4-yl)phenyl)thiazol-2-yl)amino)-2-oxoethyl)benzamide], in assay [1], the “BRM Max % Inhibition” value is on record as more than 95% and the IC50 was less than 0.1 µM. Moreover, in assay [2], the 50% inhibitory concentration (IC50) is less than 0.1 µM and the Emax is more than 95%.

In the case of `CC(C)S(=O)(=O)c1cccc(C(=O)NCC(=O)Nc2nc(-c3cccc(N4C[C@@H](C)O[C@@H](C)C4)c3)cs2)c1` [Compound 14, N-(2-((4-(3-((2S,6R)-2,6-dimethylmorpholino)phenyl)thiazol-2-yl)amino)-2-oxoethyl)-3-(isopropylsulfonyl)benzamide], in assay [1], the “BRM Max % Inhibition” value is given as more than 95% and the IC50 was less than 0.1 µM. For the same compound, in assay [2], the IC50 is 0.1 to 1 µM and the Emax was more than 80%.

On to `CC(C)S(=O)(=O)c1cc(CO)cc(C(=O)NCC(=O)Nc2nc(-c3cccc(-c4ccncc4)c3)cs2)c1` [Compound 15, 3-(hydroxymethyl)-5-(isopropylsulfonyl)-N-(2-oxo-2-((4-(3-(pyridin-4-yl)phenyl)thiazol-2-yl)amino)ethyl)benzamide], for which, in assay [1], the “BRM Max % Inhibition” value is recorded as more than 50% and the IC50 lay within 1 to 5 µM. Also, in assay [2], the IC50 is more than 5 µM and the Emax is more than 40%.

On to `Cc1cc(C(=O)NCC(=O)Nc2nc(-c3cccc(-c4ccncc4)c3)cs2)cc(S(=O)(=O)C(C)C)c1C` [Compound 16, 3-(isopropylsulfonyl)-4,5-dimethyl-N-(2-oxo-2-((4-(3-(pyridin-4-yl)phenyl)thiazol-2-yl)amino)ethyl)benzamide], for which, in assay [1], the “BRM Max % Inhibition” value is on record as more than 70% and the IC50 lay within 0.1 to 1 µM. For the same compound, in assay [2], the IC50 is more than 5 µM and the Emax was less than 30%.

In the case of `CC(C)S(=O)(=O)c1cccc(C(=O)NCC(=O)Nc2nc(-c3cccc(CO[C@H]4CC[C@H](O)CC4)c3)cs2)c1` [Compound 17, N-(2-((4-(3-((((1R,4R)-4-hydroxycyclohexyl)oxy)methyl)phenyl)thiazol-2-yl)amino)-2-oxoethyl)-3-(isopropylsulfonyl)benzamide], in assay [1], the “BRM Max % Inhibition” value is more than 90% and the IC50 was 0.1 to 1 µM. Moreover, in assay [2], the half-inhibitory concentration (IC50) was more than 5 µM and the Emax is more than 60%.

Consider `Cc1cc(-c2cccc(-c3csc(NC(=O)CNC(=O)c4cccc(S(=O)(=O)C(C)C)c4)n3)c2)cc(C)n1` [Compound 18, N-(2-((4-(3-(2,6-dimethylpyridin-4-yl)phenyl)thiazol-2-yl)amino)-2-oxoethyl)-3-(isopropylsulfonyl)benzamide], for which, in assay [1], the “BRM Max % Inhibition” value was more than 95% and the 50% inhibitory concentration (IC50) was less than 0.1 µM. Also, in assay [2], the IC50 was less than 0.1 µM and the Emax was more than 95%.

`CC(C)S(=O)(=O)c1cccc(C(=O)NCC(=O)Nc2nc(-c3cccc(-c4ccnc(C(F)(F)F)c4)c3)cs2)c1` [Compound 19, 3-(isopropylsulfonyl)-N-(2-oxo-2-((4-(3-(2-(trifluoromethyl)pyridin-4-yl)phenyl)thiazol-2-yl)amino)ethyl)benzamide]: in assay [1], the “BRM Max % Inhibition” value is more than 90% and the IC50 lay in the range of 0.1 to 1 µM. The IC50 in assay [2] was in the range of 1 to 5 µM.

With `Cc1cc(C(=O)NCC(=O)Nc2nc(-c3cccc(-c4ccncc4)c3)cs2)cc(S(=O)(=O)C(C)C)c1` [Compound 20, 3-(isopropylsulfonyl)-5-methyl-N-(2-oxo-2-((4-(3-(pyridin-4-yl)phenyl)thiazol-2-yl)amino)ethyl)benzamide], in assay [1], the “BRM Max % Inhibition” value is more than 60% and the half-inhibitory concentration (IC50) is 0.1 to 1 µM. In assay [2], the IC50 was more than 5 µM and the Emax is less than 30%.

As usually defined, the IC50 is the concentration that gives 50% inhibition.
